Experimental data published in patent US20190388425A1, “SUBSTITUTED IMIDAZOPYRIDINPYRIMIDINES” (Bayer Pharma Aktiengesellschaft, priority 2017, published 2019).

Target: T1, human full-length MKNK1 (Homo sapiens, UniProt Q9BUB5, T385D)
T1 construct: GST (N); purchased Carna Biosciences 02-145; host or cells: insect cells (baculovirus expression system)
Test: MKNK1 kinase high ATP assay (TR-FRET)
Assay type: biochemical
Conditions: TR-FRET, 2 mM ATP (high ATP), 15 min preincubation with enzyme, 30 min reaction at 22° C.; read-out: MKNK1 IC50
Outline: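 Full-length human MKNK1 (T385D) preincubated 15 min at 22 °C with compound in HEPES pH 7.5/MgCl2/DTT buffer; reaction with 2 mM ATP (final) and 0.06 μM biotinylated peptide (final), 30 min at 22 °C.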

T1 sequence (Q9BUB5 1-424 isoform Q9BUB5-2 T344D): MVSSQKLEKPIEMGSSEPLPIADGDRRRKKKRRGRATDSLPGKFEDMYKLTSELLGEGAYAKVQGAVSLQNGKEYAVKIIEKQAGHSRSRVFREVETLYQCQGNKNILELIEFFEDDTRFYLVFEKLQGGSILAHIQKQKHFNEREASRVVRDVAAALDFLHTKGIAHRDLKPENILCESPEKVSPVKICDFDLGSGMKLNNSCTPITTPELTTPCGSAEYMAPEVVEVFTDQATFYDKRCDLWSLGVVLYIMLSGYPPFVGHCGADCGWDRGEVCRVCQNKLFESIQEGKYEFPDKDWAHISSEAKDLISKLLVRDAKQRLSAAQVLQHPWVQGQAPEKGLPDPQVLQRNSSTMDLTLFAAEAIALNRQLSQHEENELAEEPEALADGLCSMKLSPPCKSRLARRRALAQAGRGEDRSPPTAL

SMILES	IC50 [nM]
CN(C)[C@H]1CCN(C(=O)[C@H]2CCc3c(sc4ncnc(Nc5cc(Cl)c6n(c5=O)C5(CCCCC5)NC6=O)c34)C2)C1 [Example 78, 8′-Chloro-6′-{[(7S)-7-{[(3S)-3-(dimethylamino)pyrrolidin-1-yl]carbonyl}-5,6,7,8-tetrahydro[1]benzothieno[2,3-d]pyrimidin-4-yl]amino}-2′H-spiro[cyclohexane-1,3′-imidazo[1,5-a]pyridine]-1′,5′-dione]	4.8
C[C@@H]1COCCN1C(=O)[C@H]1CCc2c(sc3ncnc(Nc4cc(Cl)c5n(c4=O)C4(CCCCC4)NC5=O)c23)C1 [Example 79, 8′-Chloro-6′-{[(7S)-7-{[(3R)-3-methylmorpholin-4-yl]carbonyl}-5,6,7,8-tetrahydro[1]benzothieno[2,3-d]pyrimidin-4-yl]amino}-2′H-spiro[cyclohexane-1,3′-imidazo[1,5-a]pyridine]-1′,5′-dione]	0.3
C[C@@H]1CN(C(=O)[C@H]2CCc3c(sc4ncnc(Nc5cc(Cl)c6n(c5=O)C5(CCCCC5)NC6=O)c34)C2)CCN1C [Example 80, 8′-Chloro-6′-{[(7S)-7-{[(3R)-3,4-dimethylpiperazin-1-yl]carbonyl}-5,6,7,8-tetrahydro[1]benzothieno[2,3-d]pyrimidin-4-yl]amino}-2′H-spiro[cyclohexane-1,3′-imidazo[1,5-a]pyridine]-1′,5′-dione]	0.2
O=C1NC2(CCCCC2)n2c1c(Cl)cc(Nc1ncnc3sc4c(c13)CC[C@H](C(=O)N1C[C@H]3C[C@@H]1CO3)C4)c2=O [Example 81, 8′-Chloro-6′-({(7S)-7-[(1R,4R)-2-oxa-5-azabicyclo[2.2.1]hept-5-ylcarbonyl]-5,6,7,8-tetrahydro[1]benzothieno[2,3-d]pyrimidin-4-yl}amino)-2′H-spiro[cyclohexane-1,3′-imidazo[1,5-a]pyridine]-1′,5′-dione]	0.3
Cc1cc(Nc2ncnc3sc4c(c23)CC[C@H](C(=O)N2CC(C#N)C2)C4)c(=O)n2c1C(=O)N[C@]21CC[C@@](O)(C(F)(F)F)CC1 [Example 82, 1-{[(7S)-4-{[(cis)-4-Hydroxy-8′-methyl-1′,5′-dioxo-4-(trifluoromethyl)-1′,5′-dihydro-2′H-spiro[cyclohexane-1,3′-imidazo[1,5-a]pyridin]-6′-yl]amino}-5,6,7,8-tetrahydro[1]benzothieno[2,3-d]pyrimidin-7-yl]carbonyl}azetidine-3-carbonitrile]	1.5
Cc1cc(Nc2ncnc3sc4c(c23)CC[C@H](C(=O)N2CCN(C)[C@H](C)C2)C4)c(=O)n2c1C(=O)N[C@]21CC[C@@](O)(C(F)(F)F)CC1 [Example 83, (cis)-6′-{[(7S)-7-{[(3R)-3,4-Dimethylpiperazin-1-yl]carbonyl}-5,6,7,8-tetrahydro[1]benzothieno[2,3-d]pyrimidin-4-yl]amino}-4-hydroxy-8′-methyl-4-(trifluoromethyl)-2′H-spiro[cyclohexane-1,3′-imidazo[1,5-a]pyridine]-1′,5′-dione]	1.5
O=C1NC2(CCCC2)n2c1c(Cl)cc(Nc1ncnc3sc4c(c13)CC[C@H](C(=O)O)C4)c2=O [Example 84, (7S)-4-[(8′-Chloro-1′,5′-dioxo-1′,5′-dihydro-2′H-spiro[cyclopentane-1,3′-imidazo[1,5-a]pyridin]-6′-yl)amino]-5,6,7,8-tetrahydro[1]benzothieno[2,3-d]pyrimidine-7-carboxylic acid]	1
NC(=O)[C@H]1CCc2c(sc3ncnc(Nc4cc(Cl)c5n(c4=O)C4(CCCC4)NC5=O)c23)C1 [Example 85, (7S)-4-[(8′-Chloro-1′,5′-dioxo-1′,5′-dihydro-2′H-spiro[cyclopentane-1,3′-imidazo[1,5-a]pyridin]-6′-yl)amino]-5,6,7,8-tetrahydro[1]benzothieno[2,3-d]pyrimidine-7-carboxamide]	0.2
